In article PMC8279409, “Novel Mixed NOP/Opioid Receptor Peptide Agonists” (Journal of Medicinal Chemistry, 2021):
Several values for one entry are separate records, joined by “and”; a condition that tells them apart may be missing. Equal entries are not always repeated. Where two headings read alike, the source gives them in different places. Where no end group is shown, it is not given here.

Legend:
[1] = molecular target: T1, human NOP receptor (Homo sapiens, UniProt P41146); experiment: Calcium mobilization, NOP receptor; type: cell-based; conditions: for NOP pEC50 (CL95%): CHO cells coexpressing human NOP and Gαqi5, Fluo-4 AM, 37 °C, mean of at least three experiments in duplicate, CL95% in brackets; for NOP/mu CR (concentration ratio): calcium mobilization, NOP versus mu; for Emax: mean ± SEM of at least three experiments in duplicate, SEM
T1 construct: expressed in transfected cells; host or cells: CHO cells stably coexpressing the receptor and chimeric Gαqi5
Description: CHO cells stably coexpressing the human NOP or kappa or the mu receptor and the C-terminally modified Gαqi5 and CHO cells coexpressing the delta receptor and the GαqG66Di5 protein were generated and cultured as described previously.[45],[46] Cells were maintained in Dulbecco’s modified Eagle’s medium/nutrient mixture F-12 (DEMEM/F-12) supplemented with 10% FBS, 100 U/mL penicillin and 100 μg/mL streptomycin, 100 μg/mL hygromicin B, and 200 μg/mL G418 and cultured at 37 °C in 5% CO2 humidified air. Cells were seeded at a density of 50,000 cells/well into 96-well black, clear-bottom plates. The following day, the cells were incubated with Hanks’ balanced salt solution (HBSS) supplemented with 2.5 mM probenecid, 3 μM of the calcium-sensitive fluorescent dye Fluo-4 AM, and 0.01% pluronic acid for 30 min at 37 °C. After that time, the loading solution was aspirated and 100 μL/well of HBSS supplemented with 20 mM HEPES, 2.5 mM probenecid, and 500 μM brilliant black was added. Serial dilutions were carried out in HBSS/HEPES (20 mM) buffer (containing 0.02% BSA fraction V). After placing both plates (cell culture and master plate) into the fluorometric imaging plate reader FlexStation II (Molecular Devices, Sunnyvale, CA), fluorescence changes were measured. On-line additions were carried out in a volume of 50 μL/well. To facilitate drug diffusion into the wells, the present studies were performed at 37 °C. Maximum change in fluorescence, expressed as percent over the baseline fluorescence, was used to determine agonist response.
The pharmacological terminology adopted in this paper is consistent with IUPHAR recommendations.[59] All data are expressed as the mean ± standard error of the mean (SEM) of at least three experiments performed in duplicate. […] Concentration-response curves to agonists were fitted to the classical four-parameter logistic nonlinear regression model:
Effect = Baseline + (Emax – Baseline)/(1 + 10^(LogEC50 – Log[compound]) × Hillslope). Curve fitting was performed using PRISM 6.0 (GraphPad Software Inc., San Diego).

[2] = molecular target: T2, human mu receptor (Homo sapiens, UniProt P35372); experiment: Calcium mobilization, mu opioid receptor; type: cell-based; conditions: for mu pEC50 (CL95%): CHO cells coexpressing human mu receptor and Gαqi5, Fluo-4 AM, 37 °C, mean of at least three experiments in duplicate, CL95% in brackets; for pEC50_mu: molecular formula strings CSV, repeats calcium mobilization values of Tables 1-3; for activation at 10 µM / Emax: percent over the baseline fluorescence, SEM; for activation at 10 µM: mean ± SEM; for Emax: mean ± SEM of at least three experiments in duplicate
T2 construct: expressed in transfected cells; host or cells: CHO cells stably coexpressing the receptor and chimeric Gαqi5

[3] = tested on: NOP, mu, kappa, delta receptors; conditions: functional studies with human recombinant receptors; cited from earlier work
From the text: Finally, the effects of [Dmt^1,5]N/OFQ(1-13)-NH2 at kappa and delta opioid receptors were investigated. […] Of note, the kappa potency of [Dmt^1,5]N/OFQ(1-13)-NH2 was similar to that shown at NOP and mu receptors. […] Moreover, similar results have b ...

[4] = read-out: NOP Emax ± S.E.M., Table 1 series, maximum change in fluorescence as percent over the baseline fluorescence
[5] = read-out: mu effect at 10 μM (crc incomplete), Table 1 series
[6] = read-out: NOP Emax ± S.E.M., Table 2 series, percent over the baseline fluorescence
[7] = read-out: mu effect at 10 μM (crc incomplete), Table 2 series

T1 sequence (P41146 whole entry): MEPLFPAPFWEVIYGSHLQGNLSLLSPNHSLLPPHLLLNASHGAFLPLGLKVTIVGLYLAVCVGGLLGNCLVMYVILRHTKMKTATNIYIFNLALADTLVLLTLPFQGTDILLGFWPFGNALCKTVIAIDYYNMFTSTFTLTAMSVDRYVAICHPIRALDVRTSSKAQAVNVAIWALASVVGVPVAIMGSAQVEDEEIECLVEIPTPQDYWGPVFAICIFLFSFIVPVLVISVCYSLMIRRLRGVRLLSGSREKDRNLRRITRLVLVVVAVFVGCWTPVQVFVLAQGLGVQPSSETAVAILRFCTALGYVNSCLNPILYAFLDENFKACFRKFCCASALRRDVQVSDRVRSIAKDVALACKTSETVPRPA
T2 sequence (P35372 whole entry): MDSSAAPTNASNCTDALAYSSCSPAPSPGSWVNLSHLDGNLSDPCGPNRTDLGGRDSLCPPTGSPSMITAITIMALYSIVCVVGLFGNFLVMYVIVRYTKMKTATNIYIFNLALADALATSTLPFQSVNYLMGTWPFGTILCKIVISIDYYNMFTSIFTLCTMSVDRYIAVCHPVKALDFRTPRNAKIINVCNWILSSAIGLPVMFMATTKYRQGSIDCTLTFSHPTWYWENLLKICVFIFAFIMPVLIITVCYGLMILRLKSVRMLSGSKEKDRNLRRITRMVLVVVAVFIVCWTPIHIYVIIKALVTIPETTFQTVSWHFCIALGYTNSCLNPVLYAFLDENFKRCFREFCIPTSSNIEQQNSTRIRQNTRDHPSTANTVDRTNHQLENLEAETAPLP

Substance | NOP pEC50 (CL95%) ([1]; Table 1 series, FlexStation II) | NOP/mu CR (concentration ratio) ([1]; Table 1 series) | Emax [1, 4] | mu pEC50 (CL95%) ([2]; Table 1 series) | pEC50_mu [2] | activation at 10 µM [2, 5] | other results
YGGFNGARKSARK-NH2 [Compound 4, [Tyr^1,Asn^5]N/OFQ(1-13)-NH2] | 8.70 (8.26–9.11) | 0.002 | 327 ± 15% | crc incomplete; 10 μM: 209 ± 29 | crc incomplete | 209 ± 29% | –
YGGFTGARKSARK-NH2 [Compound 3, [Tyr^1]N/OFQ(1-13)-NH2, reference compound] [listing 1 of 2 here] | – | – | – | – | – | – | EC50 [1]: 0.741 nM and 0.708 nM; EC50 [2]: 1580 nM
YGGFTGARKSARK-NH2 [Compound 3, [Tyr^1]N/OFQ(1-13)-NH2, reference compound] [listing 2 of 2 here] | 9.23 (9.07–9.39) | 0.001 | 380 ± 11% | crc incomplete; 10 μM: 197 ± 69 | crc incomplete | 197 ± 69% | NOP/mu CR (concentration ratio) ([1]; Table 3 series): <0.001; Emax [1, 6]: 266 ± 14%; Emax ([1]; read-out: NOP Emax ± S.E.M., Table 3 series, percent over the baseline fluorescence): 236 ± 13%; mu pEC50 (CL95%) ([2]; Table 2 series): crc incomplete; 10 μM: 217 ± 29; Emax ([2]; read-out: mu Emax ± S.E.M., Table 3 series): 251 ± 34%; activation at 10 µM [2, 7]: 217 ± 29%
YGGFVGARKSARK-NH2 [Compound 5, [Tyr^1,Val^5]N/OFQ(1-13)-NH2] | 8.70 (8.53–8.87) | 0.002 | 334 ± 19% | crc incomplete; 10 μM: 254 ± 19 | crc incomplete | 254 ± 19% | –
YGGFWGARKSARK-NH2 [Compound 17, [Tyr^1,Trp^5]N/OFQ(1-13)-NH2] | – | – | – | – | crc incomplete | – | NOP pEC50 (CL95%) ([1]; Table 2 series): 7.27 (7.19–7.35); NOP/mu CR (concentration ratio) ([1]; Table 2 series): 0.07; Emax [1, 6]: 288 ± 28%; mu pEC50 (CL95%) ([2]; Table 2 series): crc incomplete; 10 μM: 193 ± 31; activation at 10 µM [2, 7]: 193 ± 31%
YGGFYGARKSARK-NH2 [Compound 14, [Tyr^1,5]N/OFQ(1-13)-NH2] | 7.07 (6.68–7.46) | 0.49 | 332 ± 19% | 6.76 (6.34–7.18) | – | – | Emax ([2]; read-out: mu Emax ± S.E.M, Table 1 series): 357 ± 21%
[Dmt^1]N/OFQ(1-13)-NH2 | – | – | – | – | – | – | rank order of potency [3]: NOP = mu > kappa > delta
